According to US20020107281A1, “Phototherapeutic and chemotherapeutic immunotherapy against tumors” (Photogen, Inc., priority 2000, published 2002):

Assays:
[1] = tested on: subcutaneous RAG tumors; experiment: Intra-lesional Rose Bengal chemotherapy of RAG tumors, immune incompetent mice (Example 8); type: in vivo, BALB/C athymic nude mice; conditions: 10% solution intra-lesionally
Description: (§1) The immunologic basis for phototherapy-induced immunity is further illustrated by the following example which is not intended to limit the present invention. As an additional control, immune incompetent mice were implanted with subcutaneous tumors, treated using phototherapy, then challenged with a second dose of tumor cells. Since they are immune incompetent, the inventors believed that such mice would respond to phototherapy but fail to develop immunity to tumor cells. […] The rate of tumor development from such implantation was approximately 50% (14/28 mice developed tumors within five weeks of injection). The tumors were treated using intra-lesionally-injected Rose Bengal and green light photoactivation (1% Rose Bengal administered intra-lesionally at approximately 1 cc/cm^3 tumor volume, then illuminated 24 hours post administration using 532 nm laser light at 100 J/cm^2, 200 mW/cm^2).
(§2) The chemotherapeutic and immunologic anti-tumoral effect for the prototypical halogenated xanthene, Rose Bengal, is further illustrated by the following example which is not intended to limit the present invention. Immune competent mice (C57BL/6 mice) and immune incompetent mice (BALB/C athymic nude mice) were implanted with subcutaneous RAG tumors, as previously described in Example 4. […]

[2] = tested on: multiple superficial mast cell tumors; experiment: Intra-lesional Rose Bengal chemotherapy in a dog with mast cell tumors (Example 7); type: in vivo
Procedure: This chemotherapeutic and immunologic anti-tumoral effect for the prototypical halogenated xanthene, Rose Bengal, is illustrated by the following example which is not intended to limit the present invention. An adult, female dog with multiple superficial mast cell tumors was treated by injection of several cc of a 10% solution of Rose Bengal into each of several tumors (approximately one third of the total tumors were treated in this manner). […] Such a response in the treated tumors is consistent with the expected chemotherapeutic modality of the injected Rose Bengal, while the noted decrease in non-treated tumors represents an ongoing immune assault upon remaining remote tumor tissues.

[3] = tested on: Murine hepatoma tumor cells (ATCC CRL-1830 Hepa 1-6); experiment: Rose Bengal PDT of left-flank tumor in mice with bilateral hepatoma tumors (Example 5); type: in vivo, C57BL/6 mice
Procedure: The immunologic basis for phototherapy-induced immunity is further illustrated by the following example which is not intended to limit the present invention. Murine hepatoma tumor cells (10^6 cells, ATCC CRL-1830 Hepa 1-6) were injected subcutaneously into the left flank of immunocompetent mice (C57BL/6). Concurrent with this implantation, a smaller implantation was performed by injecting 5×10^5 tumor cells into the right flank of these mice. Tumors presented in both flanks within approximately 5-6 days of implantation. One group of mice were otherwise untreated and served as controls. […] A second group received illumination of the left-flank tumor with green light (532 nm laser light at 100 J/cm^2, 200 mW/cm^2). […] A third group received intra-lesional injection of the left-flank tumor with 50 μL of a 10% Rose Bengal solution (the right-flank tumor was not treated); the injected tumor was then illuminated 24 hours post drug administration using 532 nm laser light.

[4] = tested on: recurrent malignant fibrous histocytoma; experiment: Rose Bengal injection plus 60Co irradiation of a dog's tumor (Example 1); type: in vivo
Procedure: This anti-tumoral effect for the prototypical halogenated xanthene, Rose Bengal, is illustrated by the following example which is not intended to limit the present invention. An adult, female dog with a recurrent malignant fibrous histocytoma (an undifferentiated tumor that could be considered to be a poorly differentiated mesenchymal tumor), approximately 20 cc in volume, was treated by injection of approximately 7 cc of a 10% solution of Rose Bengal at several locations throughout the tumor volume. After a period of five days, an irradiation regimen consisting of 5 daily fractions (2 Gy each) of radiation from a ^60Co source was begun in order to effect phototherapy of the tumor. […] Such a response at 5 days is consistent with a chemotherapeutic modality of the injected Rose Bengal, while continued decrease in tumor mass at 19 days is consistent with a phototherapeutic modality related to tumor irradiation. […] This continued tumor regression is consistent with ongoing immune assault upon remaining tumor tissue.

[5] = tested on: subcutaneous RAG tumors; experiment: Intra-lesional Rose Bengal chemotherapy of RAG tumors, immune competent mice (Example 8); type: in vivo, C57BL/6 mice; conditions: 10% solution intra-lesionally
Description: as §1, §2

[6] = tested on: renal adenocarcinoma (RAG) tumors; experiment: Rose Bengal PDT of RAG tumors in nude mice, then tumor cell rechallenge (Example 4); type: in vivo, BALB/C athymic nude mice
Description: as §1

## O=C([O-])c1c(Cl)c(Cl)c(Cl)c(Cl)c1-c1c2cc(I)c(=O)c(I)c-2oc2c(I)c([O-])c(I)cc12.[Na+].[Na+] [Rose Bengal]
[1]; approximately 1 cc/cm^3 tumor volume, immune incompetent mice
  immediate effect of chemotherapeutic treatment on tumor: immediate tumor necrosis
[1]; immune incompetent mice (0/4 mice treated), upon follow-up
  cure rate: 0%
[2]; all follow-up intervals
  side-effects in healthy tissue surrounding the treated tumors: no significant side-effects in healthy tissue surrounding the treated tumors
  systemic side effects: nor any evidence of significant systemic side effects
[2]; several cc of 10% solution into approximately one third of the tumors, over subsequent three month period, no light
  size of mast cell tumors, both treated and non-treated: marked and progressive reduction in size
[3]; 50 μL of 10% Rose Bengal solution intra-lesionally, 532 nm laser light 24 hours post administration
  eradication of the treated left-flank tumor: 5/5
[3]; left-flank tumor treated with 10% Rose Bengal and 532 nm light, right-flank tumor not treated
  spontaneous rejection of the untreated right-flank tumor: 5/5
[4]; 12 weeks post injection
  tumor mass at follow-up: significant further reduction in tumor mass
[4]; 19 days post injection, after 5 daily fractions (2 Gy each) 60Co
  tumor size after irradiation: further measurable decrease in tumor size
[4]; all follow-up intervals
  side-effects in healthy tissue surrounding the tumor: no significant side-effects in healthy tissue surrounding the tumor
[4]; approximately 7 cc of 10% solution injected into tumor, five days post injection, immediately prior to irradiation
  tumor response before irradiation: measurable decrease in tumor density along with significant edema and apparent necrosis of large sections of the tumor
[4]; approximately 12 months post-treatment
  final histologic examination for viable tumor tissue: no evidence of viable tumor tissue was observed
[5]; approximately 1 cc/cm^3 tumor volume, immune competent mice
  immediate effect of chemotherapeutic treatment on tumor: immediate tumor necrosis
[5]; immune competent mice (6/6 mice treated), upon follow-up
  cure rate: 100%
[6]; 1% Rose Bengal intra-lesionally, approximately 1 cc/cm^3 tumor volume, 532 nm laser light 100 J/cm^2 24 hours post administration
  effect of phototherapy on treated lesions: selective acute necrosis of treated lesions
[6]; seven complete responders, 10^4 tumor cells to opposite flank, five weeks following challenge (3/7 mice)
  tumor development after challenge with second injection of RAG tumor cells: approximately 50%
